Broadly, the IC50 is the concentration at which inhibition is half-maximal. A higher IC50 goes with a need for much substance.

The test system of data set [1] is 20-HETE formation (CYP4) in HLM. Description: Inhibition of 20-HETE formation at 250 or 500 nM in HLM microsomal incubations. Conditions: HLM 300 μg/ml, AA 100 μM, 20 min; for HLM % inh. @ 500 nM: 500 nM compound; for HLM % inh. @ 250 nM: 250 nM compound. Type of data set: biochemical, human. In a few lines:
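Protein 300 μg/ml (microsomes) / 25 pmol/mL (rCYP4F2); AA 100 μM; NADPH 1 mM start; KPi 0.12 M + 5 mM MgCl2; 20 min, 37° C. Read-out: 20-HETE by UPLC-MS/MS (d6 IS), % of vehicle, n=3.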

Data set [2] deals with formation of EETs and DiHETs (epoxygenase activity) in HLM. Description: Selectivity: inhibition of EETs and DiHETs formation (epoxygenase activity) in HLM. In kind it is biochemical, human. The settings on record: for IC50: sum of EETs and DiHETs. The method, then: Selectivity of compounds for inhibition of 20-HETE formation vs inhibition of formation of 8,9-, 11,12-, 14,15-EET and 5,6-, 8,9-, 11,12-, 14,15-DiHETs was assessed via the simultaneous monitor of formation of 20-HETE and those metabolites under the UPLC-MS/MS assay conditions described above using HLM incubations and the same 12 test compound concentrations (0.1 nM-[…]) used for the IC50 determination experiments. At each of the 12 concentrations, the selectivity of 20-HETE inhibition over the other metabolites was compared. Epoxygenase activity was assessed by the sum of EETs and DiHETEs as percentage of control.

In the next data set the test system is MDR1 (P-gp). Description: BBB penetration potential, MDR1-MDCK permeability. In kind it is in vitro ADME. Conditions: dog; for Papp A→B at 120 min, 5 μM: apical to basolateral, pH 7.4, read-out: BBB penetration potential MDCK A-B 10−6 cm/s; for Papp B→A at 120 min, 5 μM: basolateral to apical, pH 7.4, read-out: BBB penetration potential MDCK B-A 10−6 cm/s. The method, then:
BBB penetration potential assessment data in Table 1 was obtained as follows. MDR1-MDCK cell monolayers were grown to confluence on collagen-coated, microporous membranes in 12-well assay plates. Atenolol, propranolol and digoxin were used as control to assess plate quality. The permeability assay buffer was Hanks' balanced salt solution containing 10 mM HEPES and 15 mM glucose at a pH of 7.4. The buffer in the receiver chamber also contained 1% bovine serum albumin. The dosing solution concentration was 5 μM of test article in the assay buffer. Cell monolayers were dosed on the apical side (A-to-B) or basolateral side (B-to-A) and incubated at 37° C. with 5% CO2 in a humidified incubator. Samples were taken from the donor and receiver chambers at 120 minutes. Each determination was performed in duplicate the flux of lucifer yellow was also measured post-experimentally for each monolayer to ensure no damage was inflicted to the cell monolayers during the flux period. All samples were assayed by LC-MS/MS using electrospray ionization using a PE SCIEX API 4000 spectrometer and total run time of 1 min. Analytical method/conditions were: Liquid Chromatography Column: Waters ACQUITY UPLC BEH Phenyl 30×2.1 mm, 1.7 m; M.P. Buffer: 25 mM ammonium formate buffer, pH 3.5; Aqueous Reservoir (A): 90% water, 10% buffer; Organic Reservoir (B): 90% acetonitrile, 10% buffer; Flow Rate: 0.7 mL/minute; gradient program: 99% A (t=0 min), 1% A (t=0.65 min), 1% A (t=0.75 min), 99% A (t=0.8 min), 99% A (t=1 min); 5 μL injection volume
The apparent permeability (Papp) and percent recovery were calculated as follows: Papp=(dCr/dt)×Vr/(A×CA) (1) Percent Recovery=100×((Vr×Cr^final)+(Vd×Cd^final))/(Vd×CN) (2)
wherein: • dCr/dt is the slope of the cumulative concentration in the receiver compartment versus time in μMs^−1; • Vr is the volume of the receiver compartment in cm^3; • Vd is the volume of the donor compartment in cm^3; • A is the area of the insert (1.13 cm^2 for 12-well); • CA is the average of the nominal dosing concentration and the measured 120 minute donor concentration in μM; • CN is the nominal concentration of the dosing solution in μM; • Cr^final is the cumulative receiver concentration in μM at the end of the incubation period; • Cd^final is the concentration of the donor in μM at the end of the incubation period. Efflux ratio (ER) is defined as Papp (B-to-A)/Papp (A-to-B) Interpretation Brain Penetration Potential Classification: • Papp (A-to-B)≥3.0 and ER<3.0: High • Papp (A-to-B)≥3.0 and 10>ER≥3.0: Moderate • Papp (A-to-B)≥3.0 and ER≥10, or Papp (A-to-B)<3.0 Low

For the molecule `Clc1ccc(CC2CCN(c3cn[nH]c3)CC2)cc1` [Compound 93, 4-(4-Chlorobenzyl)-1-(1H-pyrazol-4-yl)piperidine], the “HLM % inh. @ 500 nM” value in data set [1] came out at 93.03%. For the same molecule, the “EETs Inhibition, % @ 10 μM” value in data set [2] (at 10 μM) amounted to 50% @ 10 μM. Besides, in the data set on MDR1 (P-gp), the Papp A→B at 120 min, 5 μM came to 44.3 ×10⁻⁶ cm/s and the Papp B→A at 120 min, 5 μM is 40 ×10⁻⁶ cm/s.
Consider `O=C1CCCN1c1ccc(C2CCN(c3cn[nH]c3)CC2)cc1` [Compound 100, 1-(4-(1-(1H-Pyrazol-4-yl)piperidin-4-yl)phenyl)pyrrolidin-2-one], for which the “HLM % inh. @ 500 nM” value in data set [1] is recorded as 76.1%. Besides, the IC50 in data set [2] was > 0.05 µM. For the same molecule, in the data set with MDR1 (P-gp), the Papp A→B at 120 min, 5 μM was determined as 22.2 ×10⁻⁶ cm/s and the Papp B→A at 120 min, 5 μM came to 46.9 ×10⁻⁶ cm/s.
Regarding `COc1ccc(C2CCN(c3cn[nH]c3)CC2)cc1` [Compound 20, 4-(4-Methoxyphenyl)-1-(1H-pyrazol-4-yl)piperidine], the “HLM % inh. @ 500 nM” value in data set [1] was 73.10%. The “EETs Inhibition, % @ 50,000” value in data set [2] (at 50,000 (nM per column head)) is on record as 3.1%@ 50,000. In the data set with MDR1 (P-gp), the Papp A→B at 120 min, 5 μM turned out to be 32 ×10⁻⁶ cm/s and the Papp B→A at 120 min, 5 μM turned out to be 25.7 ×10⁻⁶ cm/s.
On to `COc1ccc(C2CCN(c3ccn[nH]3)CC2)cc1` [Compound 19, 4-(4-Methoxyphenyl)-1-(1H-pyrazol-5-yl)piperidine], for which the “HLM % inh. @ 500 nM” value in data set [1] is 72.30%. Besides, the concentration for half-maximal inhibition (IC50) in data set [2] was > 25 µM.
In the case of `Cc1cccc(C2CCN(c3cn[nH]c3)CC2)c1` [Compound 34, 1-(1H-Pyrazol-4-yl)-4-(m-tolyl)piperidine], the “HLM % inh. @ 500 nM” value in data set [1] amounted to 80.00%. In the data set on MDR1 (P-gp), the Papp A→B at 120 min, 5 μM turned out to be 60.1 ×10⁻⁶ cm/s and the Papp B→A at 120 min, 5 μM turned out to be 48.6 ×10⁻⁶ cm/s.
For `c1ccc(C2CCN(c3ccn[nH]3)CC2)cc1` [Compound 54, 4-Phenyl-1-(1H-pyrazol-5-yl)piperidine], in data set [1], the “HLM % inh. @ 250 nM” value turned out to be 31.60% and the “HLM % inh. @ 500 nM” value came out at 47.40%. The half-inhibitory concentration (IC50) in data set [2] was > 50 µM.
With `O=C1CCCN1Cc1ccc(C2CCN(c3cn[nH]c3)CC2)cc1` [Compound 83, 1-(4-(1-(1H-Pyrazol-4-yl)piperidin-4-yl)benzyl)pyrrolidin-2-one], in data set [1], the “HLM % inh. @ 500 nM” value worked out at 91.6%. The IC50 in data set [2] is > 0.05 µM. Moreover, in the data set on MDR1 (P-gp), the Papp A→B at 120 min, 5 μM worked out at 5.16 ×10⁻⁶ cm/s and the Papp B→A at 120 min, 5 μM was 41.6 ×10⁻⁶ cm/s.
Turning to `CC(=O)N(C)c1ccc(C2CCN(c3cn[nH]c3)CC2)cc1` [Compound 28, N-(4-(1-(1H-Pyrazol-4-yl)piperidin-4-yl)phenyl)-N-methylacetamide], in data set [1], the “HLM % inh. @ 500 nM” value amounted to 75.00%. Besides, in the data set with MDR1 (P-gp), the Papp A→B at 120 min, 5 μM amounted to 18.4 ×10⁻⁶ cm/s and the Papp B→A at 120 min, 5 μM came to 40.2 ×10⁻⁶ cm/s.
For the molecule `c1ccc(C2CCN(c3cn[nH]c3)CC2)cc1` [Compound 1, 4-Phenyl-1-(1H-pyrazol-4-yl)piperidine], in data set [1], the “HLM % inh. @ 250 nM” value worked out at 64.29% and the “HLM % inh. @ 500 nM” value was 78.80%. Moreover, the IC50 in data set [2] was > 10 µM.
For `c1ccc(CC2CCN(c3cn[nH]c3)CC2)cc1` [Compound 3, 4-Benzyl-1-(1H-pyrazol-4-yl)piperidine], the “HLM % inh. @ 500 nM” value in data set [1] is reported as 77.30%. For the same molecule, the IC50 in data set [2] is > 25 µM. Also, in the data set with MDR1 (P-gp), the Papp A→B at 120 min, 5 μM worked out at 62 ×10⁻⁶ cm/s and the Papp B→A at 120 min, 5 μM was determined as 60 ×10⁻⁶ cm/s.

The values are drawn from US12479816B2, “20-HETE formation inhibitors” (UNIVERSITY OF PITTSBURGH—OF THE COMMONWEALTH SYSTEM OF …, priority 2019, dated 2025).
